Measurements taken from patent publication US5034530A, “Imidazoquinoxaline compounds and their preparation and use” (Novo Nordisk A/S, priority 1988, dated 1991).

Tested on: benzodiazepine receptors
Assay: in vivo displacement of 3H-flunitrazepam specific binding from brain benzodiazepine receptors in mice
Conditions: dose reducing specific 3H-flunitrazepam binding in living mouse brain to 50% of control; test substance i.p. 15 min before i.v. 3H-FNM; female mice; forebrain
Excerpt: The pharmaceutical properties of the compounds of the invention can be illustrated by determining their capability for displacing radioactive labelled flunitrazepam from benzodiazepine receptors.
The displacement activity of the compounds of the invention may be found by determining the ED50 value. The ED50 value represents the dose (mg/kg) of a test substance which causes the specific binding of flunitrazepam to benzodiazepine receptors in a living brain to be reduced to 50% of the control value.
Such an in vivo test is carried out as follows:
Principle. Twenty minutes after a dose of ^3 H-flunitrazepam (^3 H-FNM) (200 μCi/kg, i.v.) the amount of specific ^3 H-FNM binding to brain benzodiazepine receptors has reached its maximal value.
Test procedure. Suspensions of test substances (2 mg/ml) are prepared in 5% Duphasol-X (TM Duphar, castor oil-ethylene oxide derivative for emulsifying and solubilizing oil and other water-insoluble substances) by sonification for 10 min using a Branson B15 microtip ultrasonifier (setting 7). Groups of three mice (female, NMR, 18-22 grams) are injected with the test substance at 100 mg/kg intraperitoneally. Fifteen minutes after test substance administration the mice are challenged with 4 μCi intravenously of ^3 H-FNM (70-90 Ci/mole) in 200 μl physiological saline. Twenty minutes after ^3 H-FNM administration mice are sacrificed by decapitation, the forebrains rapidly excised (within 30 sec) and homogenized in 12 ml of icecold 25 mM KH2 PO4, pH 7.1, using an Ultra-Turrax homogenizer fitted with an N 10 shaft. […] The amounts of radioactivity on the filters are determined by conventional scintillation counting. […]
Results. The ED50 value is determined from dose response curves. If only one dose of test substance is administered the ED50 value is calculated as follows, provided that the inhibition of specific binding is within the range of 25-75%: [formula] where Co is specific binding in controls and Cx is specific binding in mice treated with test substance.

Compound `Cc1nc2ccccc2n2cnc(-c3noc(C4CC4)n3)c12` [Compound 7, 3-(5-Cyclopropyl-1,2,4-oxadiazol-3-yl)-4-methyl-imidazo[1,5-a]quinoxaline] has an ED50 of 1.3 mg/kg.
In the case of `Cc1nc(-c2ncn3c2c(C)nc2ccccc23)no1` [Compound 8, 4-Methyl-3-(5-methyl-1,2,4-oxadiazol-3-yl)-imidazo[1,5-a]quinoxaline], the ED50 is reported as 1.8 mg/kg.
Work on `Cc1nc2ccccc2n2cnc(-c3nc(C4CC4)no3)c12` [Compound 10, 3-(3-Cyclopropyl-1,2,4-oxadiazol-5-yl)-4-methyl-imidazo[1,5-a]quinoxaline] yielded an ED50 of 3.5 mg/kg.
